Measured values published in publication PMC3152332 (Nucleic Acids Research, 2011).

How the values were obtained:
Ec-Mtq2-Trm112 = Ec-Mtq2-Trm112 (Encephalitozoon cuniculi, UniProt Q8SRR4); settings: SAM co-purified with the complex; contacts only Mtq2 residues
yeast Mtq2-Trm112 = yeast Mtq2-Trm112 (Saccharomyces cerevisiae, UniProt Q03920); settings: labelled compound; eRF1, eRF3 and GTP present
Hs-Mtq2 + Hs-Trm112 = Hs-Mtq2 + Hs-Trm112 (Homo sapiens, UniProt Q9Y5N5); settings: labelled compound; with Hs-Trm112; methylation buffer, 30 °C, 15 min
Hs-Mtq2 + Hs-Trm112, sequence (Q9Y5N5 whole entry): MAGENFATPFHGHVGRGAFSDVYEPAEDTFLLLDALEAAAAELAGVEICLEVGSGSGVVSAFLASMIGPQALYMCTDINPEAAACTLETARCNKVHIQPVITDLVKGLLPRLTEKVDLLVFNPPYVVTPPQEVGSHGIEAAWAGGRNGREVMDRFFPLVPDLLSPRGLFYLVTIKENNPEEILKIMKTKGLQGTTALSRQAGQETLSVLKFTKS
Hs-Mtq2 + Hs-Trm112, sequence (Q9UI30 whole entry partner): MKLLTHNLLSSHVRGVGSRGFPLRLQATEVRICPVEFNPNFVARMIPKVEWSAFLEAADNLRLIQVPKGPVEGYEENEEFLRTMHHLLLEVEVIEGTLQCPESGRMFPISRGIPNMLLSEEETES

yeast Mtq2-Trm112, sequence (Q03920 whole entry): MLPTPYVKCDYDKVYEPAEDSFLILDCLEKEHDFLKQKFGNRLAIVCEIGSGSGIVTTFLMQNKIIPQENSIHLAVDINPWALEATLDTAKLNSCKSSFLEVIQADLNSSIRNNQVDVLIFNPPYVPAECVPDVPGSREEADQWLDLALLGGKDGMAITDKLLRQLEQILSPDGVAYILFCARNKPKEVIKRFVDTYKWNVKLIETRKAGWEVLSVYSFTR
yeast Mtq2-Trm112, sequence (P53738 whole entry partner): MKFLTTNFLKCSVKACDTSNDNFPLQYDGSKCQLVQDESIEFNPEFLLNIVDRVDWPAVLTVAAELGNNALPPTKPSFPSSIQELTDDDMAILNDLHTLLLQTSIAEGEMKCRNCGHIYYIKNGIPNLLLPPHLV
Ec-Mtq2-Trm112, sequence (Q8SRR4 1-164): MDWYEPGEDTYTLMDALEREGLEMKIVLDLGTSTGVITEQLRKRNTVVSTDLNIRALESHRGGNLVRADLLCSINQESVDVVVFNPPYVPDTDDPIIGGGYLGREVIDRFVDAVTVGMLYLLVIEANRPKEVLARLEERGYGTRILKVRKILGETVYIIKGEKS
Ec-Mtq2-Trm112, sequence (Q8SUP0 1-125 partner): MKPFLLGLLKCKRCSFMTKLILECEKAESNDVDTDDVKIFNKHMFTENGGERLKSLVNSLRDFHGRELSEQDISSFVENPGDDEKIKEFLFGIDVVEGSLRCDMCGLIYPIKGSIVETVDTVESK

Compound: C[S+](CC[C@H](N)C(=O)O)C[C@H]1O[C@@H](n2cnc3c(N)ncnc32)[C@H](O)[C@@H]1O (stereo partly drawn) [SAM]
- X-ray crystal structure, 2.1 Å (Ec-Mtq2-Trm112): an unambiguous electron density corresponding to a SAM molecule is present in its expected binding site
- [3H]SAM methylation of eRF1, initial velocity (yeast Mtq2-Trm112): incubating eRF1, eRF3 and GTP with Mtq2-Trm112 complex in presence of [3H] SAM
- SAM-binding activity (Hs-Mtq2 + Hs-Trm112): Incubation of this protein with an equimolar amount of Hs-Trm112 resulted in restoration of SAM-binding activity
